From paper PMC1890308, “Anti-calmodulins and Tricyclic Adjuvants in Pain Therapy Block the TRPV1 Channel” (PLoS ONE, 2007)
Values joined by “and” are separate entries in the source; they are usually repeats but may differ in a detail not shown here. Equal values may be shown once. “Also recorded” adds a separate entry of the source. Read-outs that look alike come from different tables or passages of the source. Ends that are not written are not given here.

What was measured:
[1] = biological target: TRPV1 (Rattus norvegicus, UniProt O35433); assay: capsaicin-induced 45Ca2+-uptake in primary rat embryonic DRG cultures; type: cell-based; set-up: sensory neurons, expressing TRPV1 endogenously; endogenous in cells; host or cells: primary cultures of embryonic rat dorsal root ganglia (E14, E16); conditions: rat embryonic DRG cultures
Sequence of TRPV1 (O35433 whole entry): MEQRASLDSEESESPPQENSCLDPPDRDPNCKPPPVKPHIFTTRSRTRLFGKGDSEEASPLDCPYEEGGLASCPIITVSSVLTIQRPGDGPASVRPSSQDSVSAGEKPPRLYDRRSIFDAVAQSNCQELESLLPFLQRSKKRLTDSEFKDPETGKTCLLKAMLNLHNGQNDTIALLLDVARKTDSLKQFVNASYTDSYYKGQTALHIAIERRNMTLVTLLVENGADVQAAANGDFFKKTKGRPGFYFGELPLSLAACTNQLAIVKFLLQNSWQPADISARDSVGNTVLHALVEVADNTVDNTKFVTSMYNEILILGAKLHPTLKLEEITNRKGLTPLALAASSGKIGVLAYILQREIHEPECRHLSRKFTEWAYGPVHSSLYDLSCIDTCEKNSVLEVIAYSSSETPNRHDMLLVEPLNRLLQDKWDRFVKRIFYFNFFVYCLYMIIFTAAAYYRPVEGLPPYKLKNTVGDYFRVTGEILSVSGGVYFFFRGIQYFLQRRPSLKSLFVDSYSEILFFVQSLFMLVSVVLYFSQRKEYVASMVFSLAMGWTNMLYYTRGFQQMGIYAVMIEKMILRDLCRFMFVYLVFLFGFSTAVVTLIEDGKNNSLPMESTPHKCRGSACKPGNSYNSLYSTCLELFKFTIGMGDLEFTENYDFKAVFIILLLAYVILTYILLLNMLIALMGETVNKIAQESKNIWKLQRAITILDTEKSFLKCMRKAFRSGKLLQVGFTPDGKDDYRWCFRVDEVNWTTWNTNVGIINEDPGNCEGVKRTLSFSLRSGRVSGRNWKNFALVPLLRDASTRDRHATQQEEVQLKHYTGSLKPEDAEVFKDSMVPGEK
Method: Primary cultures were prepared from embryonic (E14) rat DRGs. Along with calmidazolium other polycyclic compounds were included in the vanilloid-induced ^45Ca^2+-transport assays.
Primary DRG cultures were prepared from E16 embryonic rats as described previously then plated in 15 cm Petri dishes for 4 h to remove the most adherent fibroblasts. For Ca^2+-uptake studies primary afferents neurons cultured in 96 well plates (3×10^3 cells/well), coated with poly-D lysine/collagen, which yielded both axons and dendrites bearing neurons due to neuronal growth factor supplementation in the culture medium [1]–[4]. The dendrites are large processes branching from the cell body that taper in diameter further from the cell body. The axons are a constant diameter and project over long distances from the cell body. Before the ion transport experiment, culture medium was removed and cells were washed three times. ^45Ca-uptake assays were carried out in “nominally zero Ca^2+” (i.e. 2×10^−5 M extracellular Ca^2+ ([Ca^2+]o) in 25 mM Tris-HCl buffered Hanks' balanced salt solution (pH 7.5), supplemented with 10 µM CaCl2 and 0.8 mM MgCl2medium (HCM) [1]–[4].
(§1) Vanilloid agonist inducible calcium transport was assayed in adherent cell lines ectopically expressing the C-terminally ε-tagged rat TRPV1 (3×10^4 cells/well) and primary cultures prepared from embryonic DRG, seeded in poly-D lysine/collagen coated 96 well plates. […] The previously established cell lines and standardized DRG cultures were extensively characterized for functional cell-based TRPV1 studies [1]–[4]. Immediately before the transport assay, cells were adapted to room temperature (20°C) for 5 min in HCM. ^45Ca^2+-uptake was performed for 10 min at 20°C in HCM using 0.1 µCi ^45Ca^2+ as radioactive tracer in a 100 µl final volume. To stop ^45Ca^2+-uptake, cells were rapidly changed back into 0.2 ml HCM, washed 4 additional times with 0.2 ml HCM, and then lysed in 80 µl/well RIPA buffer (50 mM Tris-HCl, pH 7.5, 150 mM NaCl, 1% Triton X-100, 0.5% deoxycholate, 0.1% SDS, 5 mM EDTA) for 30 min [1]–[4]. Aliquots of the solubilized cell extracts were mixed with 120 µl Microscint-40 and counted in a 96 well plate liquid scintillation counter (TopCount-NXT, Packard).

[2] = biological target: T1, rat TRPV1 (Rattus norvegicus, UniProt O35433); assay: capsaicin-induced 45Ca2+-uptake in TRPV1-NIH3T3 cells; type: cell-based; conditions: for IC50 / antagonist activity on capsaicin-induced Ca2+-uptake (in words): 2 µM capsaicin; for IC50: 10 min, 2×10^−5 M extracellular Ca2+, room temperature; for effect on Ca2+-uptake at low concentrations in the presence of capsaicin: 2 mM capsaicin (so in the source); for kinetics of Ca2+-transport inhibition: increasing concentrations of capsaicin
T1 construct: expressed in transfected cells
T1 sequence (O35433 whole entry): as above
Method: Assays were carried out in 2×10^−5 M extracellular Ca^2+ in 96 well plate formats at room temperature (22°C) for 10 min with robotic liquid handling. […] We hypothesized that calmodulin antagonists and some registered drugs may exert their blocking effect with another mechanisms on TRPV1 and not necessarily on their conventional target.
TRPV1-NIH3T3 mouse fibroblast line, ectopically expressing the rat TRPV1 was established previously.
as §1

[3] = test system: formalin-induced pain; set-up: method as in PMID 8883861; conditions: rat, intrathecal; cited from earlier work
[4] = test system: intermediate Ca2+-activated K+ channels (IKCa); conditions: human erythrocytes; cited from earlier work
[5] = test system: heat-induced tail-flick; set-up: method as in PMID 8883861; conditions: cited from earlier work
[6] = biological target: rat TRPV1 (vanilloid inducible Ca2+-channel/inflammatory pain receptor 1), C-terminally ε-tagged, in TRPV1-NIH3T3 cells (rat) (UniProt O35433)
Sequence of rat TRPV1 (vanilloid inducible Ca2+-channel/inflammatory pain receptor 1), C-terminally ε-tagged, in TRPV1-NIH3T3 cells (rat) (O35433 whole entry): as above

[7] = biological target: rat TRPV1 (vanilloid inducible Ca2+-channel/inflammatory pain receptor 1), C-terminally ε-tagged, in TRPV1-NIH3T3 cells (rat) (UniProt O35433); remark: listed apart in the source
[8] = read-out: IC50, inhibition of capsaicin-induced 45Ca2+-uptake

O=C1CSC(c2ccccc2Cl)c2cc(Cl)ccc2N1 (stereo not drawn) [CGP-37157, 7-Chloro - 5 - (2 - chlorophenyl) - 1,5 - dihydro - 4,1 – benzothiazepin - 2(3H) - one]
blocking activity on capsaicin-induced Ca2+-uptake (in words) [1]: partially active | blocking activity on capsaicin-induced Ca2+-uptake (in words) ([1]; listed as CGP 37157): partial blocking activity

Fc1cc(F)cc(C[n+]2ccn(CC(OCc3ccc(Cl)cc3Cl)c3ccc(Cl)cc3Cl)c2)c1 (stereo not drawn) [M1, Miconazole 1]
IC50 [2, 8]: 8 µM

Clc1ccc(COC(Cn2cc[n+](CC3CCCCC3)c2)c2ccc(Cl)cc2Cl)c(Cl)c1 (stereo not drawn) [M2, Miconazole 2]
IC50 [2, 8]: 8 µM

N=C(N)NCCC[C@H](NC(=O)COCC(c1ccccc1)c1ccccc1)C(=O)O [SB 290157, N2-[(2,2-Diphenylethoxy)acetyl]-L-arginine]
blocking activity on capsaicin-induced Ca2+-uptake (in words) [1]: partial blocking activity

NCCCCCCNS(=O)(=O)c1cccc2c(Cl)cccc12 [W-7, N- 6 – aminohexyl – 5 – chloro - 1 naphtalenesulfonamide]
antagonist activity on capsaicin-induced Ca2+-uptake (in words) [2]: partial or weak inhibitors | IC50 [2, 8]: ~200 µM | effect on Ca2+-uptake at low concentrations in the presence of capsaicin [2]: increased Ca^2+-uptake | analgesia in both phases of formalin tests [3]: analgesic | activity on IKCa channels (in words) [4]: inactive | effect on heat-induced tail-flick latency [5]: inhibit

NCCCCNS(=O)(=O)c1ccc2c(Cl)cccc2c1 [W-13, N - (4 - Aminobutyl) – 5 - chloro-2-naphthalenesulfonamide]
antagonist activity on capsaicin-induced Ca2+-uptake (in words) [2]: partial or weak inhibitors | IC50 [2, 8]: > 300 µM | effect on Ca2+-uptake at low concentrations in the presence of capsaicin [2]: increased Ca^2+-uptake

CN(C)CCC=C1c2ccccc2CCc2ccccc21 [amitriptyline]
IC50 [2, 8]: ~60 µM and 60 µM

COc1cc(CNC(=O)CCCC/C=C/C(C)C)ccc1O [capsaicin]
ED100 for capsaicin-induction ([2]; pH 7.5): ~1 µM

Oc1cc2c(cc1O)CN(C(=S)NCCc1ccc(Cl)cc1)CCC2 [capsazepine]
kinetics of Ca2+-transport inhibition [2]: shifted the capsaicin dose-response curves right

NC(=O)N1c2ccccc2C=Cc2ccccc21 [carbamazepine]
antagonist activity on capsaicin-induced Ca2+-uptake (in words) [2]: inactive | antagonist activity on capsaicin-induced Ca2+-uptake (in words) ([2]; listed as Carbamazepine): completely inactive

CN(C)CCCN1c2ccccc2Sc2ccc(Cl)cc21 [chlorpromazine]
antagonist activity on capsaicin-induced Ca2+-uptake (in words) [2]: full antagonists | IC50 [2, 8]: 70 µM | kinetics of Ca2+-transport inhibition [2]: non-competitive inhibition kinetics

Fc1ccc(C(c2ccc(F)cc2)N2CCN(C/C=C/c3ccccc3)CC2)cc1 [flunarizine]
blocking activity on capsaicin-induced Ca2+-uptake (in words) [1]: partially active; also recorded: partial blocking activity

OCCN1CCN(CCCN2c3ccccc3Sc3ccc(C(F)(F)F)cc32)CC1 [fluphenazine]
antagonist activity on capsaicin-induced Ca2+-uptake (in words) [2]: partial or weak inhibitors | IC50 [2, 8]: ~250 µM | effect on Ca2+-uptake at low concentrations in the presence of capsaicin [2]: increased Ca^2+-uptake

NCC1(CC(=O)O)CCCCC1 [gabapentine]
antagonist activity on capsaicin-induced Ca2+-uptake (in words) [2]: partial inhibition

CN1CCN(CCCN2c3ccccc3Sc3ccc(C(F)(F)F)cc32)CC1 [trifluoperazine]
antagonist activity on capsaicin-induced Ca2+-uptake (in words) [2]: full antagonists | IC50 [2, 8]: 9 µM and < 10 µM | activity on IKCa channels (in words) [4]: inactive

APETERAAVAIQAQFRKFQKKKAGS [camstatin]
IC50 ([2]; IC50, inhibition of capsaicin-induced 45Ca2+-uptake): 11 µM and 20 µM

Camstatin (peptide)
inhibition of capsaicin-induced Ca2+-uptake in TRPV1-NIH3T3 cells [6]: 20 µM | inhibition of capsaicin (2 µM)-induced 45Ca2+-uptake in intact TRPV1-NIH3T3 cells, 10 min, camstatin co-incubated in the uptake medium [7]: 11 µM
